Test results as given in patent EP2140864A2 (H. Lundbeck A/S, priority 2001, dated 2002).
Like-named read-outs stand apart in the source and are kept apart here.

Target: T1, human GAL3 receptor (Homo sapiens, UniProt O60755)
T1 construct: expressed in transfected cells
T1 sequence (O60755 1-368): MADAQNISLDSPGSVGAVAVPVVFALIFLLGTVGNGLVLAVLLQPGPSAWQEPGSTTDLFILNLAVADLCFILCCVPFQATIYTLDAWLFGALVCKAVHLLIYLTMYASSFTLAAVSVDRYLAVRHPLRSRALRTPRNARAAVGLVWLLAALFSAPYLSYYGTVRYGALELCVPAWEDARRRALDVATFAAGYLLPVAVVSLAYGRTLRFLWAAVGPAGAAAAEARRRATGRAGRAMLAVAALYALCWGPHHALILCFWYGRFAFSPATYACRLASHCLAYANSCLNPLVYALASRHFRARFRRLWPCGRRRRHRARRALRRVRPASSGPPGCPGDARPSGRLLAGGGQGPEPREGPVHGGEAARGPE
Experiment: Radioligand binding at cloned human GAL3 receptor
Conditions: cloned human receptor, read-out: Ki GalR3
Experimental: The present invention provides for a method of determining the binding affinity of a GAL3 antagonist, wherein the GAL3 antagonist is dissolved in a "suitable solvent". A "suitable solvent" means one which permits the measurement of binding affinity of the GAL3 antagonist to the human GAL3 receptor at concentrations less than 1 µM, preferably less than 100 nM. Examples of solvents include, but are not limited to, DMSO, ethanol, N,N-dimethylacetamide, or water. For indolones, the preferred solvent is 3% DMSO (final concentration in the assay). For pyrimidines, the preferred solvent is 1% ethanol/0.09% polypuronic acid F-127 (final concentration in the assay). For any other type of compounds, the preferred solvent is the solvent which permits the measurement of binding affinity of a GAL3 antagonist at the lowest concentration. Once a suitable solvent is ascertained for the binding assay of the human GAL3 receptor, the same solvent is used in assays to determine the binding affinity at the GAL1 receptor, the serotonin transporter, the norepinephrine transporter, and the dopamine transporter. A solvent of 0.4% DMSO is used in the central monoamine oxidase enzyme assay.
The binding properties of the pyrimidines of the present invention were evaluated at the cloned human galanin receptors, GAL1, GAL2, and GAL3, using protocols described herein.
The binding properties of the indolones of the present invention were evaluated at the cloned human galanin receptors, GAL1, GAL2, and GAL3, using protocols described herein.
LM(tk-) cells were stably transfected with the human GAL1 or GAL3 receptor. CHO cells were stably transfected with the human GAL2 receptor.
cDNAs for the human and rat GAL1, and human and rat GAL3 receptors were transfected with a G-418 resistant gene into the mouse fibroblast LM(tk-) cell line by a calcium phosphate transfection method (Cullen, 1987). Stably transfected cells were selected with G-418. Human and rat GAL2 receptors were similarly transfected into CHO cells.
Membranes were harvested from stably transfected LM(tk-) cells. Adherent cells were washed twice in ice-cold phosphate buffered saline (138 mM NaCl, 8.1 mM Na2HPO4, 2.5 mM KCl, 1.2 mM KH2PO4, 0.9 mM CaCl2, 0.5 mM MgCl2, pH 7.4) and lysed by sonication in ice-cold sonication buffer (20 mM Tris-HCl, 5 mM EDTA, pH 7.7). Large particles and debris were cleared by low speed centrifugation (200 x g, 5 min, 4°C). Membranes were collected from the supernatant fraction by centrifugation (32,000 x g, 18 min, 4°C), washed with ice-cold hypotonic buffer, and collected again by centrifugation (32,000 x g, 18 min, 4°C). The final membrane pellet was resuspended by sonication into a small volume of ice-cold binding buffer (-1 ml for every 5 plates: 10 mM NaCl, 20 mM HEPES, 0.22 mM KH2PO4, 1.26 mM CaCl2, 0.81 mM MgSO4, pH 7.4). Protein concentration was measured by the Bradford method (Bradford, 1976) using Bio-Rad Reagent, with bovine serum albumin as a standard. Membranes were held on ice for up to one hour and used fresh, or flash frozen and stored in liquid nitrogen. Membranes were prepared similarly from CHO cells.
Galanin Recentors: Binding assays were performed according to the following published methods: human GAL3 (PCT International Publication No. WO 98/15570), human GAL1 (PCT International Publication No. WO 95/2260), human GAL2 (PCT International Publication No. WO 97/26853).
Binding data were analyzed using nonlinear regression and statistical techniques available in the GraphPAD Prism package (San Diego, CA). Enzymatic assay data were derived from a standard curve of reference compound data.

| SMILES | Ki (indolones) | Ki (pyrimidines) |
| --- | --- | --- |
| O=C1/C(=N\c2ccc3ncccc3c2)c2ccccc2N1c1ccsc1 [Example 291, (3Z)-3-(6-QUINOLINYLIMINO)-1-(3-THIENYL)-1,3-DIHYDRO-2H-INDOL-2-ONE] | 271 nM | – |
| O=C1/C(=N\c2ccc(Cl)c(Cl)c2)c2ccccc2N1c1cc(Cl)cc(Cl)c1 [Example 257, (3Z)-1-(3,5-DICHLOROPHENYL)-3-[(3,4-DICHLOROPHENYL)IMINO]-1,3-DIHYDRO-2H-INDOL-2-ONE] | 33 nM | – |
| Cc1nc2cc(Nc3cc(N(C)C)nc(N4CCN(Cc5ccccc5)CC4)n3)ccc2s1 [Example 127] | – | 255 nM |
| Cc1nc2cc(N=C3C(=O)N(c4ccccc4)c4ccccc43)ccc2s1 (mixture of isomers) [Example 114, 3-[(2-METHYL-1,3-BENZOTHIAZOL-5-YL)IMINO]-1-PHENYL-1,3-DIHYDRO-2H-INDOL-2-ONE] | 569 nM | – |
| Cc1ccc(Nc2cc(N(C)C)nc(NCCNc3ccccc3)n2)cc1 [Example 176] | – | 608 nM |
| COc1ccc(CCNc2nc(Nc3ccc(C)cc3)cc(N(C)C)n2)cc1 [Example 232] | – | 155 nM |
| Cc1ccc(Nc2cc(N(C)C)nc(N3CCN(CCc4ccccc4)CC3)n2)cc1 [Example 159] | – | 180 nM |
| Cc1ccc(Nc2cc(N(C)C)nc(N3CCN(c4ccccn4)CC3)n2)c(Br)c1 [Example 204] | – | 269 nM |
| Cc1ccc(Nc2cc(N(C)C)nc(N3CCN(c4cnccn4)CC3)n2)cc1 [Example 181] | – | 750 nM |
| COc1cccc(Nc2cc(N(C)C)nc(N3CCN(Cc4ccccc4)CC3)n2)c1 [Example 252] | – | 88 nM |
| Cc1noc(C)c1CN1C(=O)/C(=N\c2cc(Cl)cc(Cl)c2)c2ccccc21 [Example 280] | 521 nM | – |
| CN(C)c1cc(Nc2cccc(OC(F)(F)F)c2)nc(N2CCN(c3ccccn3)CC2)n1 [Example 207] | – | 58 nM |
| Cc1ccc(/N=C2\C(=O)N(c3ccsc3)c3ccccc32)cc1 [Example 263] | 136 nM | – |
| CN(C)c1cc(Nc2cccc(Cl)c2)nc(N2CCN(c3ccccn3)CC2)n1 [Example 224] | – | 218 nM |
| CCCCCc1ccc(Nc2cc(N(C)C)nc(N3CCN(c4ccccn4)CC3)n2)cc1 [Example 210] | – | 58 nM |
| CN(C)c1cc(Nc2ccc(C3CCCCC3)cc2)nc(N2CCN(c3ccccn3)CC2)n1 [Example 121] | – | 21 nM |
| CN(C)c1cc(Nc2cccc(O)c2)nc(N2CCN(Cc3ccccc3)CC2)n1 [Example 155] | – | 316 nM |
| COc1cccc(Nc2cc(N(C)C)nc(N3CCN(CC4CCCCC4)CC3)n2)c1 [Example 145] | – | 155 nM |
| CN(C)c1cc(Nc2ccc(F)c(F)c2)nc(N2CCN(c3ccccn3)CC2)n1 [Example 196] | – | 443 nM |
| Cc1ccccc1Nc1cc(N(C)C)nc(Nc2ccccc2)n1 [Example 51] | – | 987 nM |
| CC(C)c1cccc(Nc2cc(N(C)C)nc(N3CCN(c4ccccn4)CC3)n2)c1 [Example 191] | – | 75 nM |
| Cc1ccc(Nc2cc(N(C)C)nc(Nc3ccc(Cl)c(Cl)c3)n2)cc1 [Example 55] | – | 48 nM |
| CN(C)c1cc(Nc2cccc(OCc3ccccc3)c2)nc(N2CCN(c3cnccn3)CC2)n1 [Example 179] | – | 15 nM |
| O=C1/C(=N\c2ccc(Cl)c(Cl)c2)c2ccccc2N1Cc1ccccn1 [Example 254] | 64 nM | – |
| CN(C)c1cc(Nc2ccc(C(F)(F)F)cc2)nc(N2CCN(Cc3ccccc3)CC2)n1 [Example 229] | – | 37 nM |
| Cc1ccc(Nc2cc(N3CCCCC3)nc(N3Cc4cccc5cccc(c45)C3)n2)cc1 [Example 43] | – | 107 nM |
| Cc1ccc(Nc2cc(N3CCCCC3)nc(N3CCN(c4c(C(F)(F)F)ccc[n+]4[O-])CC3)n2)cc1 [Example 249] | – | 386 nM |
| CN(C)c1cc(Nc2ccc(Cl)cc2Cl)nc(N2CCN(c3ccccn3)CC2)n1 [Example 205] | – | 193 nM |
| CN(C)c1cc(NC23CC4CC(CC(C4)C2)C3)nc(N2CCN(Cc3ccccc3)CC2)n1 [Example 138] | – | 52 nM |
| O=C1/C(=N\c2ccc(Br)cc2)c2ccccc2N1c1ccsc1 [Example 269, (3Z)-3-[(4-BROMOPHENYL)IMINO]-1-(3-THIENYL)-1,3-DIHYDRO-2H-INDOL-2-ONE] | 46 nM | – |
